{
  "source": "patent US10662194B2",
  "about": "“Substituted 6-anilino-9-heterocyclylpurine derivatives for inhibition of plant stress” (UNIVERZITA PALACKEHO V OLOMOUCI, priority 2014, dated 2020)",
  "key": {"maize (hybrid Amadeo)": {"test_system": "maize (hybrid Amadeo)", "test": "Seed coating, shoot and root growth of maize (pot experiment)", "format": "in vivo", "procedure": "The drenching experiments with model plant Arabidopsis pointed to potential application of compound 12 in stimulation of plant growth and development when the roots of the plants are exposed to the chemical. […] In the year 2011 pot experiment was performed with maize (hybrid Amadeo; KWS, FAO 230). The seeds were coated with 10 and 50 μM concentration of compound 12 mixed into seed treatment agent Cruiser OSR (Syngenta; 8 L of solution per 1000 kg of seeds). Seeds coated with only Cruiser OSR were used for control variant. The seeds were dried and then sown into the soil, one plant per 15 L pot (30 plants were used per variant). The plants were harvested after app. one month in stage DC 18 (eight leafs per plant). The shoots and the roots of each plant were separated and dried. The weight of dry shoot and root biomass was recorded. […] The plants, which seeds were coated with the lower concentration of compound 12, formed 2-times higher root dry biomass and 2.75-times higher shoot dry biomass. In total this was reflected by 2.3-times increase of the total plant dry weight."}, "AHK3": {"target": "T1, AHK3 (Arabidopsis thaliana, UniProt Q9C5U1)", "T1 construct": "expressed in transfected cells; host or cells: Escherichia coli strain KMI001", "T1 sequence (Q9C5U1 1-1036)": "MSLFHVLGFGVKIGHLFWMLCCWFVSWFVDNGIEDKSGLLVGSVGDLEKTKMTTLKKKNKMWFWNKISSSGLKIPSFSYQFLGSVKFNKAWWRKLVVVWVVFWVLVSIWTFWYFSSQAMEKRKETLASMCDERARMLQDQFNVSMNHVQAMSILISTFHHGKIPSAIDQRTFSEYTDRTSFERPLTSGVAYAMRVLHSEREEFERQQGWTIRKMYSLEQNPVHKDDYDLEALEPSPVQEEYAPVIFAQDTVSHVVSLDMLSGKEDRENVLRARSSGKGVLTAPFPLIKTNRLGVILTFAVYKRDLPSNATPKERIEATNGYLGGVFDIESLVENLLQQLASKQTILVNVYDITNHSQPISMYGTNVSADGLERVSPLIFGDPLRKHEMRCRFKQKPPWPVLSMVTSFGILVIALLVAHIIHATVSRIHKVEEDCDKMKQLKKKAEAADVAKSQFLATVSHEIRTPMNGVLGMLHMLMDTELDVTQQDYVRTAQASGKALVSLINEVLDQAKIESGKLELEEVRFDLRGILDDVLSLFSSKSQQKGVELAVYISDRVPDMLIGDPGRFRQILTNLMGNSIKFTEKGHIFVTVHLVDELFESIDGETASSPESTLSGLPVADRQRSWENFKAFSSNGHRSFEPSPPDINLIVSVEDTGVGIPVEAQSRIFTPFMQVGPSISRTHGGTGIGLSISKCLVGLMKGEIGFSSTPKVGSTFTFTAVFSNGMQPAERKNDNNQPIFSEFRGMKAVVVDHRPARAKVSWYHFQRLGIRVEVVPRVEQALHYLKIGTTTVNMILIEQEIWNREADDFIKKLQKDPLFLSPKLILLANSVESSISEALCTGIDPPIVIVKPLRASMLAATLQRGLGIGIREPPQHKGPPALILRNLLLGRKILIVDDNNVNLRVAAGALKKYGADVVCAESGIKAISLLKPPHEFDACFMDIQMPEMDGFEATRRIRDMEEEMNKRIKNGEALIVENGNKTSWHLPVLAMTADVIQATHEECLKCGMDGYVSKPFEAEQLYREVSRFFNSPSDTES", "test": "Escherichia coli cytokinin receptor activation assay (AHK3)", "format": "cell-based", "conditions": "10^−7 M-5×10^−5 M, compared to trans-zeatin, FIG. 1", "procedure": "Escherichia coli strains KMI001 harbouring the plasmid pIN-III-AHK4 or pSTV28-AHK3 were grown overnight at 25° C. in M9 media enriched with 0.1% casamino acids to OD600˜1. The preculture was diluted 1:600 in 1 ml M9 medium containing 0.1% casamino acids and 1 μL stock solution of either the tested compound (10^−7 M-5×10^−5 M) or solvent control (DMSO, ethanol, methanol) were added. The cultures were further grown at 25° C. in microtiter plate, 200 μL per well. […] The cultures were centrifuged and 50 μL aliquots of the supernatant were transferred to microtiter plate containing 2 μL 50 mM 4-methyl umbelliferyl galactoside which was subsequently incubated for 1 h at 37° C. The reaction was stopped by adding 100 μL 0.2 M Na2CO3. Fluorescence was measured using a Fluoroscan Ascent (Labsystems, Finland) at the excitation and emission wavelengths of 365 and 460 nm, respectively. The OD600 of remaining culture was determined and β-galactosidase activity was calculated as nmol 4-methylumbelliferone×OD600^−1×h^−1."}, "[1]": {"test_system": "Salmonella typhimurium strains TA100 and TA98", "test": "Ames MPF 98/100 Mutagenicity Assay", "format": "cell-based", "conditions": "up to 100 μM, +/−S9, FIG. 12", "procedure": "The compound 12 was tested using Ames MPF™ 98/100 Mutagenicity Assay kit (Aniara, Ohio) that is employing Salmonella typhimurium strains TA100 (for the detection of base substitution mutations) and TA98 (for the detection of frameshift mutations) according to the instructions for use."}, "[2]": {"conditions": "seed coating, lower concentration (10 μM), stage DC 18"}},
  "data": [
    {"smiles": "COc1cccc(Nc2nc(Cl)nc3c2ncn3C2CCCCO2)c1", "note": "(stereo not drawn) [compound 12, 2-chloro-6-(3-methoxyanilino)-9-(tetrahydropyran-2-yl)purine]", "values": [
      {"measurement": "effect on shoot and root dry biomass", "setting": "maize (hybrid Amadeo); seed coating 10 and 50 μM, FIG. 10", "result": "dose-dependent stimulatory effect"},
      {"measurement": "increase of the total plant dry weight", "setting": "maize (hybrid Amadeo); [2]", "result": 2.3, "unit": "times"},
      {"measurement": "root dry biomass, times higher than control", "setting": "maize (hybrid Amadeo); [2]", "result": 2, "unit": "times"},
      {"measurement": "shoot dry biomass, times higher than control", "setting": "maize (hybrid Amadeo); [2]", "result": 2.75, "unit": "times"},
      {"measurement": "ability to activate cytokinin receptor AHK3", "setting": "AHK3", "result": "very low ability to activate"},
      {"measurement": "mutagenic potential in Ames test", "setting": "[1]", "result": "did not score positively"}
    ]}
  ]
}
